Assay results taken from patent US4425352A, “Substituted phenoxyacetates of cyclic amines” (Agence Nationale de Valorisation de la Recherche, priority 1980, dated 1984).
Values joined by “and” are separate entries in the source; they are usually repeats but may differ in a detail not shown here. Equal entries are not always repeated.

Legend:
[1] = test system: fish chromatophores; assay: Action on the fish chromatophores (time of blackening); type: in vivo, Phoxinus Phoxinus Linne; details: at minimum effectual concentration
Description: The physiology of fish chromatophores is dependent on hypothalamic secretions of the lower portion of the diencephalon. The psychotropic and cerebral-orientation drugs can modify the physiology of these regions [J. Thuillier et al. C.R. Soc. […] This test is known to evidence the action of the products on the diencephalon which controls distension and blackening of fish chromatophores. […] The time for the fish blackening to occur was measured. The same test was effected with Meclofexonate.

[2] = test system: rats; assay: Orientation test after an electroshock; type: in vivo
Description: This test consists in causing a loss of orientation and motive disorders in rats after repetition of 4 series of electroshock [M. Herold: Acta. Int. Meet. Psycho. Drug.

[3] = test system: genetically obese mice; assay: Action on genetically obese mice; type: in vivo; details: for Decrease in weight: obese mice, gastric ingestion, 18 days
Description: Finally, gastric ingestion during 18 days of 200 mg/kg of PM 170 causes, in obese mice, a steady decrease in weight of 8.3%, while in the same conditions there occurs, with Meclofenoxate, a decrease in weight of 2.2%.

[4] = Diuretic action; type: in vivo
[5] = test system: blood platelet clotting; assay: Effect against blood platelet clotting (pia-mater vessels); type: in vivo, rabbits; details: dose not stated
Description: All the products of the invention prepared according to Examples 1 and 2 at a dose of 10 mg/kg have an effect against plaquette aggregation which was observed on the pia-mater vessels of rabbits [M. M. G. BOZEIX 7th. Int. Congress of Pharmacology, Paris, July 1978].

[6] = test system: mice intoxicated with aurothioglucose; assay: Protective effect against the action of aurothioglucose (hyperphagia, stomach weight, weight gain); type: in vivo; parameters: Decrease in the stomach weight with respect to the aurothioglucose reference: unit not given here; details: for Weight increase: 15 days after beginning, aurothioglucose alone 49%; for Action against hyperphagia and weight gain of mice intoxicated with aurothioglucose: given 1/2 hour before aurothioglucose 250 mg/kg
Description: Hunger and thirst regulation is dependent on stimulating secretions from the hypothalamus. These regulator centers may be disturbed either in acquired manner in genetically obese animals, either consequently to the destruction of the involved centers by selective poisons, such as aurothioglucose.
If 250 mg/kg of aurothioglucose are injected to mice, then the cells of the hypothalamic nuclei will degenerate and cause an hyperphagia syndrome in animals which is evidenced by:
a distension of the stomach,
a considerable increase in ponderal growing.
The mice were treated with one of the products of the invention 1/2 hour before the intraperitoneal injection of aurothioglucose (250 mg/kg).

[7] = test system: mice; assay: Acute toxicity (LD 50) per os and intraveinous, Litchfield and Wilcoxon method; type: in vivo; details: for LD 50 I.V.: intraveinous; for LD 50 P.O.: per os
Description: The toxicities were calculated according to the LITCHFIELD and WILCOXON method (J. Pharm. and Exp. Therap. 1949, 96, p. 99, 113).
The products were administered per os and per intraveinous route to mice.

[8] = test system: genetically obese mice; assay: Action on genetically obese mice; type: in vivo; parameters: Alimentary consumption: unit not given here; details: for Weight: in g
[9] = test system: mice rendered obese by aurothioglucose; assay: Curative action after development of obesity under the action of aurothioglucose; type: in vivo; details: for Decrease in weight/Aurothioglucose references: 18 days, per os; for Activity compared with Meclofenoxate at 200 mg/kg: in words
Description: Mice were rendered obese by intra-peritoneal injections of aurothioglucose (800 mg/kg).
After the development of obesity, a plateau was obtained in the weight curve. There was then selected an homogenous group of mice and treatment with PM 170 and Meclofenoxate was initiated. The results obtained were compared with a group of reference mice treated only with aurothioglucose (ATG controls).

[10] = test system: cerebral oedema of rats; assay: Actions on cerebral oedema caused by triethyltin chloride; type: in vivo; details: 50 mg per kilogram
Description: The alkylated tin compounds are toxic and cause selective oedema of the central nervous system and in particular of the brain (Works of R. KATZMAN et al. Arch. Neurol. 9, 178, 1963). The water content of the cerebral tissue is increased. Similarly, the cerebral sodium content increases, while the potassium is reduced.
100 mg per kg of Meclofenoxate are required to provide the same result.

[11] = test system: central nervous system; assay: Actions on the central nervous system (overall statement); type: in vivo; details: versus Meclofenoxate

## CN(C)CCOC(=O)COc1ccc(Cl)cc1 [Meclofenoxate, dimethylaminoethyl 4-chlorophenoxyacetate, reference compound]
[1]
  Time of occurrence of the blackening: 90 s
[2]; up to 200 mg/kg
  Efficacy in orientation test after electroshock: absolutely inefficient
[3]; 200 mg/kg
  Decrease in weight: 2.2%
[4]; dose not stated
  Diuretic action: no effect against blood platelet clotting nor diuretic action
[5]
  Effect against blood platelet clotting: no effect against blood platelet clotting
[6]; 250 mg/kg P.O
  Decrease in the stomach weight with respect to the aurothioglucose reference: 2.2495
[6]; 300 mg/kg P.O
  Decrease in the stomach weight with respect to the aurothioglucose reference: 1.6129
[6]
  Weight increase: 45%
[6]; Mus musculus, stomach weight, Table IV, read-out: Dosage at which (only) active
  minimal effective dose: 250 mg/kg
[6]; stomach weight, versus PM 170
  Times less active than PM 170: 12.4 times
[6]; versus PM 170, in words
  Activity to counteract obesity caused by aurothioglucose: less active than PM 170
[7]
  LD 50 I.V.: 350 mg
  LD 50 P.O.: 1750 mg
[8]; treated normal females, 300 mg/kg, normal female controls 6.703 ± 0.597
  Alimentary consumption: 5.842 ± 0.842
[8]; treated normal females, 300 mg/kg, normal female controls 25.3 ± 0.504
  Weight: 24.8 ± 0.602
[8]; treated obese females, 300 mg/kg, obese female controls 6.347 ± 0.637
  Alimentary consumption: 5.542 ± 0.302
[8]; treated obese females, 300 mg/kg, obese female controls 42.5 ± 0.787
  Weight: 41.2 ± 0.802
[9]; 50 mg/kg
  Decrease in aliment consumption/ATG references: inactive
[9]; 50 mg/kg per day
  Decrease in weight/Aurothioglucose references: inactive
[9]; 100 mg/kg
  Decrease in aliment consumption/ATG references: 26%
[9]; 100 mg/kg per day
  Decrease in weight/Aurothioglucose references: 10%
[9]; 200 mg/kg
  Decrease in aliment consumption/ATG references: 23% and 22.9%
[9]; 200 mg/kg per day
  Decrease in weight/Aurothioglucose references: 5%

## CCN1CCCC(OC(=O)COc2ccc(Cl)cc2)C1 (centres unmarked) [PM 168, N-ethyl-3-piperidine 4-chloro-phenoxyacetate]
[1]
  Time of occurrence of the blackening: 30 s
[10]
  Effect on the build up of Na+: limit the build up of Na^+
  Effect on the loss of K+: counteract the loss of K^+
  Occurrence of the oedema caused by triethyltin chloride: considerably reduce the occurrence of the oedema
[6]; 100 mg/kg P.O
  Decrease in the stomach weight with respect to the aurothioglucose reference: 2.5510
[6]; 150 mg/kg P.O
  Decrease in the stomach weight with respect to the aurothioglucose reference: 3.37
[6]
  Action against hyperphagia and weight gain of mice intoxicated with aurothioglucose: counteract both hyperphagia and the weight gain
[7]
  LD 50 I.V.: 140 mg
  LD 50 P.O.: 1800 mg

## CN1CCCC(COC(=O)COc2ccc(Cl)cc2)C1 (centres unmarked) [PM 170, N-methyl-3-hydroxymethyl-piperidine (4-chloro-phenoxyacetate)]
[1]
  Time of occurrence of the blackening: 90 s
[2]; 100 mg, first 2 series of electroshock
  Efficacy in orientation test after electroshock: slightly effective
[3]; genetically obese mice of 42-42.5 g, in words
  Activity on alimentary consumption and weight development: active both on alimentary consumption and on weight development
[3]; 200 mg/kg
  Decrease in weight: 8.3%
[3]; treated obese males, 200 mg/kg, obese male controls 43.3 ± 0.284, in g
  Weight: 39.3 ± 0.882
[11]
  Activity on the central nervous system relative to Meclofenoxate: from five to twelve times more active than Meclofenoxate
[4]; 100 mg/kg
  Diuretic action: slight diuretic action
[10]
  Effect on the build up of Na+: limit the build up of Na^+
  Effect on the loss of K+: counteract the loss of K^+
  Occurrence of the oedema caused by triethyltin chloride: considerably reduce the occurrence of the oedema
[6]; 20 mg/kg P.O
  Decrease in the stomach weight with respect to the aurothioglucose reference: 3.2155
[6]; 50 mg/kg P.O
  Decrease in the stomach weight with respect to the aurothioglucose reference: 2.8729
[6]; 100 mg/kg P.O
  Decrease in the stomach weight with respect to the aurothioglucose reference: 4.2287
[6]
  Weight increase: 34%
  Action against hyperphagia and weight gain of mice intoxicated with aurothioglucose: counteract both hyperphagia and the weight gain
[6]; in words
  Activity against increase of the stomach weight distension: very high activity
[7]; in words
  Toxicity compared with Meclofenoxate / overall toxicity: less toxic than "Meclofenoxate"
[7]
  LD 50 I.V.: 175 mg
  LD 50 P.O.: 2300 mg
[8]; treated normal males, 200 mg/kg, normal male controls 6.307 ± 0.746
  Alimentary consumption: 4.716 ± 0.880
[8]; treated normal males, 200 mg/kg, normal male controls 25.34 ± 0.365
  Weight: 22.22 ± 0.484
[8]; treated obese males, 200 mg/kg, obese male controls 6.786 ± 0.853
  Alimentary consumption: 4.384 ± 0.886
[9]; 50 mg/kg
  Decrease in aliment consumption/ATG references: 10%
  Activity compared with Meclofenoxate at 200 mg/kg: same activity at 50 mg/kg than Meclofenoxate at 200 mg/kg
[9]; 50 mg/kg per day
  Decrease in weight/Aurothioglucose references: 5%
[9]; 100 mg/kg
  Decrease in aliment consumption/ATG references: 33%
[9]; 100 mg/kg per day
  Decrease in weight/Aurothioglucose references: 12%
[9]; 200 mg/kg
  Decrease in aliment consumption/ATG references: 36%
  Activity compared with Meclofenoxate at 200 mg/kg: markedly higher than Meclofenoxate at 200 mg/kg
[9]; 200 mg/kg per day
  Decrease in weight/Aurothioglucose references: 14%

## CN1CCCCC1COC(=O)COc1ccc(Cl)cc1 (centres unmarked) [PM 172, N-methyl-2-hydroxymethyl-piperidine 4-chloro-phenoxyacetate]
[1]
  Time of occurrence of the blackening: 60 s
[10]
  Effect on the build up of Na+: limit the build up of Na^+
  Effect on the loss of K+: counteract the loss of K^+
  Occurrence of the oedema caused by triethyltin chloride: considerably reduce the occurrence of the oedema
[6]; 60 mg/kg P.O
  Decrease in the stomach weight with respect to the aurothioglucose reference: 2.6299
[6]; 100 mg/kg P.O
  Decrease in the stomach weight with respect to the aurothioglucose reference: 2.2727
[6]
  Action against hyperphagia and weight gain of mice intoxicated with aurothioglucose: counteract both hyperphagia and the weight gain
[7]
  LD 50 I.V.: 160 mg
  LD 50 P.O.: 1500 mg
